Data taken from a melting point compilation (Tetko et al.; mined from patent text by program, amines drawn as free bases though some values may be those of a salt).

| Compound | melting point [°C] |
| --- | --- |
| O=C1c2ccccc2CCC1CN1CCC(O)(c2ccc(Cl)cc2)CC1 (centres undefined) | 227 to 228 |
| COc1ccc(-c2c[nH]c(-c3nc(-c4ccco4)c(C(=O)C4CCOCC4)s3)n2)cc1 | 178 to 180 |
| CN1CCN(c2nc(N)c3c(n2)CCCS3)CC1 | 140 to 141 |
| CC(C)CN1CCC(CNc2ccc(Cl)cc2C(=O)Nc2ccc(Cl)cn2)CC1 | 121 to 122 |
| O=[N+]([O-])c1ccc(C#CCCN2CCN(c3ccccn3)CC2)nc1 | 126 |
| CC(C)C(C(=O)O)c1ccc([N+](=O)[O-])cc1 (centres undefined) | 124 to 127 |
| O=S(=O)(Cc1cc(F)cc(F)c1)NC1CN(C(c2ccc(Cl)cc2)c2cccnc2)C1 (racemic) | 110 |
| CCCc1nc2c(c(C)c(C)n3nnnc23)n1CC(C)(C)NC(C)=O | 237 to 240 |
| Cn1c(C(F)(F)F)cc(=O)n(-c2c(F)cc(Cl)c3cc(-c4ccccc4)oc23)c1=O | 215 to 216 |
| O=C(Nc1ccc(-n2nc(C(F)(F)F)cc2C(F)(F)F)cc1)c1cccc(I)c1 | 192 to 193 |
| CN(C)C(=O)Nc1cc(C(F)(F)F)on1 | 126 |
| O=C1OC(c2ccccc2)(c2ccccc2)C2CN(S(=O)(=O)c3ccccc3)CCN12 (centres undefined) | 236 to 237 |
| CN(C)C=C1CC(=O)Nc2ccccc2C1=O | 203 to 205 |
| NS(=O)(=O)c1ccccc1SCC(F)F | 111 to 112 |
| CCN1CC(C(=O)Nc2cnccn2)CC2c3cccc4[nH]cc(c34)CC21 (centres undefined) | 151 to 155 |
| NC(=O)C(c1ccccc1)N1C(=O)c2ccccc2C1=O (centres undefined) | 218 |
| N#Cc1c(N)cccc1Sc1cccc(N)c1 | 99 to 100 |
| Cc1c(C)c2c(c(C)c1NC(=O)C(=O)C(C)(C)C)C(c1ccc(C(C)C)cc1)CO2 (centres undefined) | 142 to 143 |
| CCCc1nc(S(=O)(=O)Nc2c(F)cccc2F)nn1-c1ccccc1 | 148 to 150 |
| O=C(O)c1cccc([N+](=O)[O-])c1Nc1ccc(Br)cc1 | 194 to 196 |
| COc1ccc(-c2nc(-c3ccc(F)cc3)c(-c3ccc(S(C)(=O)=O)cc3)s2)cc1 | 187 to 189 |
| CC(C)c1ccc(C(=O)c2c(N)sc3c2CCN(Cc2ccccc2)C3)cc1 | 157 to 158 |
| CC(=O)NC[C@H]1CN(c2ccc(C3CCN(S(C)(=O)=O)CC3)c(F)c2)C(=O)O1 | 240 to 242 |
| COC(=O)CNC(=O)c1[nH]c(C)c(-c2nc3ccc(C(=O)c4ccccc4)cc3[nH]2)c1C | 149 to 151 |
| O=C(N1CCN(c2nc(N3CC=CC3)nc(N3CC=CC3)n2)CC1)n1ccnc1 | 160 to 162 |

| Compound | melting point [°C] |
| --- | --- |
| O=C(CCCN1CCCC1)NC(Cc1c[nH]c2ccccc12)C(=O)CCc1cc(C(F)(F)F)cc(C(F)(F)F)c1 (centres undefined) | 99 to 100 |
| CNC(=O)N(CCN)c1nc(-c2ccc(F)cc2C)c2ccc(=O)n(-c3c(F)cccc3F)c2n1 | 124 to 133 |
| CC1(c2ccccc2)OC(C=Cc2cccnc2)=CC1=O (centres undefined) | 106 to 108 |
| Cn1cc(-c2cc3cccnc3[nH]2)c2cc(C(N)=O)ccc21 | 330 to 332 |
| CNc1cnc(N2CCOCC2)cc1-c1ccccc1C | 73.5 to 76 |
| CCc1nc2c(=O)[nH]c(=O)n(C)c2nc1CC | 218 to 222 |
| COc1cc(-c2ccccc2)nc(-c2ccc(C)cc2)n1 | 99 to 100 |
| COc1ccc(CSc2nnc(-c3ccc4[nH]ncc4c3)o2)cc1 | 204 to 205 |
| CCCc1nc2c(N)nc3cc(Oc4ccc([N+](=O)[O-])cc4)ccc3c2n1CC(C)C | 209 to 211 |
| Cc1c(C(=O)c2sc(Nc3ccc(N4CCOCC4)cc3)nc2N)ncn1C | > 300 |
| CC1(C)CN(Cc2cc3ncccc3o2)c2nc(-c3ccncc3)cc(=O)n2C1 | 170 to 171 |
| O=C(O)c1ccc(Oc2ccc3c(c2)CCN(CCN2CCCC2)C3=O)cc1 | 99 to 100 |
| COc1cccc2c(C#Cc3ccccc3)c3cccc(OC)c3c(C#Cc3ccccc3)c12 | 178 to 180 |
| COP(=O)(Cc1ccc(-c2nc3ccccc3s2)cc1)OC | 130 |
| Nc1nccc(-c2ccccc2OCC(O)CN2CCN(c3ccc(Cl)cc3)CC2)n1 (centres undefined) | 159 to 160 |
| O=C(Nc1ccc(Cl)cc1)ONC1=Nc2ccc(Cl)cc2C(c2ccccc2)=NC1 | 200 to 203 |
| O=C(Nc1ccc2c(c1)nc1n2CCC1)c1cc2cc(C(F)(F)F)cnc2n1Cc1ccccc1 | 268 to 270 |
| O=c1c2ccccc2n(CCc2ccccc2)c(=O)n1S(=O)(=O)c1ccc(Cl)cc1 | 200 to 202 |
| O=C1CN(C(=O)c2ccccc2)c2cc(F)ccc2N1 | 226 to 227 |
| O=[N+]([O-])c1cnc2ccc(S)cc2c1-c1ccccc1 | 160 to 163 |
| O=C(O)C1=Cc2cc(Cl)cc(C#Cc3ccc(Cl)cc3)c2OC1C(F)(F)F (centres undefined) | 210 to 211 |
| O=C(NC1(Cc2ccccc2)C=CCC1)C(Cl)(Cl)Cl (centres undefined) | 127 to 128 |
| Cc1nnc(N2N=C(c3cc(C)c([N+](=O)[O-])c(C)c3)c3cc4c(cc3C[C@H]2C)OCO4)o1 | 132 to 133 |
| C[C@H](O)c1nnc(-c2ccc3occ(-c4ccc(S(C)(=O)=O)cc4)c3c2)o1 | 175 to 176 |
| CC1(C)COC(c2ccccc2-c2ccc(C(=O)O)cc2)=N1 | 190 to 193 |

The next lines start with the values.

| melting point [°C] | Compound |
| --- | --- |
| 106 to 108 | CC(=NOCCCC(=O)O)c1ccc(Cl)cc1 |
| 87 to 89 | C#CCOCc1c(C)nc2c(OCc3ccccc3C)cccn12 |
| 71.9 to 72.5 | COCCOC(=O)Cc1cc(Oc2ccc(C(F)(F)F)cc2Cl)ccc1[N+](=O)[O-] |
| 236 | COc1cc(OC)c(C(=O)CBr)cc1C(=O)O |
| 156 to 158 | COc1cc(C(C)=O)ccc1OCCCCN1CCN(c2n[nH]c3cc(F)ccc23)CC1 |
| 300 to 301 | COc1ccccc1-c1cc2cnc(N)nc2nc1NC(=O)NC(C)(C)C |
| 174 to 175 | COc1cc2c(c3c1OC(C)(C)C3)C(c1ccn(-c3cc(C(N)=O)ccn3)c(=O)c1)=NC(C)(C)C2 |
| 186 to 189 | COc1ccc2c(c1)C1(O)C(=O)c3ccccc3C1(O)O2 (centres undefined) |
| 164 to 167 | COC(=O)c1ccc2c(-c3cccc(OC)c3)nc(=O)n(C(C)C)c2c1 |
| 179 to 180 | Cc1cc(Br)cnc1CCCCNC1=NS(=O)N=C1NCc1cccnc1 (centres undefined) |
| 183 to 184 | COC(=O)C1CCc2cc(C(=O)c3cccs3)c(O)cc21 (centres undefined) |
| 156 to 157 | CCCCOc1c(CN2C(=O)c3ccccc3C2=O)n(CC2CC2)c(=O)c2ccc(Br)cc12 |
| 113 to 116 | COC(=O)CC(=O)c1ncccc1Cl |
| 55 to 56 | COC(=O)C=Cc1ccc(C)cc1 |
| 117 to 119 | CCOC(=O)CN(NC(=O)OC(C)(C)C)C(=O)OCc1ccccc1 |
| 242 to 243 | CCOC(=O)c1cc2c3ccccc3[nH]c(=S)n2n1 |
| 114 | COc1ccc(Cl)cc1C(=O)NCCc1ccc(-c2ccc(S(C)(=O)=O)cc2)c(S(N)(=O)=O)c1 |
| 82.2 to 84.2 | CCc1ccccc1-c1cccc(Br)c1OCc1cccc(C(=O)NCCO)c1 |
| 200 to 201 | COc1ccc(C(C)=O)cc1S(N)(=O)=O |
| 158 to 161 | COc1ccc([C@@H]2C=C[C@H](C(=O)O)n3c(=O)n(CCCl)c(=O)n32)cc1 (relative stereo) |
| 202 to 205 | CNC(=S)N(C)NC(=O)c1cccc(F)c1 |
| 113 to 116 | COc1ccc(-c2cc(Cl)c3ccccc3n2)cc1Cl |
| 110 to 112 | CC(C#Cc1cccc(Oc2cccs2)c1)N(O)C(N)=O (centres undefined) |
| 110 to 112 | CCOC(=O)C=C1CCC(C#N)(c2ccc(OC)c3c2OCCO3)CC1 (centres undefined) |
| 62 to 64 | CCOC(=O)CCC(=O)NCc1ccc(N)cc1 |

| melting point [°C] | Compound |
| --- | --- |
| 55 to 56 | CCCCCCCCCCCCc1ccccc1C(CC(=O)O)SCCC(=O)O (centres undefined) |
| 151 to 154 | COC1=C(OC)C(=O)C2=C(CCC(CCOc3ccc(NC(C)=O)cc3)CC2)C1=O |
| 150 | CCOC(=O)C1=C(C)NC(C)=C(C(=O)OC)C1c1ccc([N+](=O)[O-])cc1 (centres undefined) |
| 64.6 to 67 | COC(=O)COc1ccc(NC(=O)CCCCCOCc2ccccc2)cc1 |
| 68 to 71 | CCCCOC(=O)OCN1C(=O)CN(CCN2CC(=O)N(COC(=O)OCCCC)C(=O)C2)CC1=O |
| 185 | CC(=O)OC1CSC(Oc2cnccc2-c2ccncc2)C(OC(C)=O)C1OC(C)=O (centres undefined) |
| 209 to 210 | CCOC(=O)C(Cl)=Cc1cc(NC(N)=O)ccc1Cl |
| 49 to 51 | CCCOC(=O)C(C)Oc1ccc(Oc2cnc3cc(F)ccc3n2)cc1F (centres undefined) |
| 88 to 89 | CCOC(=O)CC(=O)COCC1=C(C(=O)OCC)C(c2ccccc2Cl)C(C(=O)OC)=C(C)N1 (centres undefined) |
| 100 to 103 | COc1cccc(CCC(c2ccccc2)C(O)c2ccc(O)cc2)c1 (centres undefined) |
| 283 to 284 | COc1cccc2c(=O)sc(C(=O)O)cc12 |
| 93 to 94 | CCOC(=O)/C(=C\Nc1cc(OC)ccc1OC)c1ccccc1 |
| 156 to 157 | COc1cccc2c1CC(NC(C)=O)CC2 (centres undefined) |
| 85 | Cc1ccc(S(=O)(=O)OCC(NC(=O)OC(C)(C)C)C(C)C)cc1 (centres undefined) |
| 141 to 144 | COc1cc(C(=O)N2Cc3cccn3Cc3ccccc32)ccc1-n1c(C)ccc1C |
| 229 to 230 | COc1cccc(CNC(=O)c2nc3scc(COCc4ccc(C(=O)O)cc4)c3c(=O)[nH]2)c1 |
| 86 to 89 | COc1cc(C=CC(=O)OCCCCBr)ccc1O |
| 269 to 271 | O=C(O)c1ccc(OC(=O)c2ccc(O)c(C34CC5CC(CC(C5)C3)C4)c2)cc1 |
| 150 | COc1ccc2sc(C(=O)O)c(OCc3ccccc3)c2c1 |
| 170 to 174 | C=Cc1c(-c2ccccc2)coc1C(=O)NNC(=O)c1ccc(O)c(C#N)c1 |
| 167 to 168 | CCCc1nc2c(N)nc3cc(Oc4ccccc4C(=O)OC)ccc3c2n1CC(C)C |
| 81 to 85 | Nc1cccc2c1CNC2 |
| > 220 | COc1cc2cc(CO)c(CO)c(-c3ccnc(C4C(=O)CCCC4=O)c3)c2cc1OC |
| > 250 | O=C(O)COc1ccc(C(=O)O)c(Cl)c1Cl |
